Source: US20240166652A1, “MODULATORS OF THE INTEGRATED STRESS PATHWAY” (Calico Life Sciences LLC, priority 2017, published 2024)

tested on: ATF4 luciferase reporter in HEK293T cells; test: ATF4-Luc assay (ATF4 luciferase reporter, tunicamycin-treated HEK293T cells); assay type: cell-based, human; details: Homo sapiens, HEK-293T; HEK293T cells carrying the ATF4 luciferase reporter, 1 μg/mL tunicamycin, 7 hours

| Structure (SMILES) | EC50 |
| --- | --- |
| COC(=O)c1cc(OCC(=O)NC23CCC(NC(=O)COc4ccc(Cl)c(F)c4)(CC2)C[C@@H]3O)no1 [Compound 519, methyl 3-[2-({(2S)-4-[2-(4-chloro-3-fluorophenoxy)acetamido]-2-hydroxybicyclo[2.2.2]octan-1-yl}amino)-2-oxoethoxy]-1,2-oxazole-5-carboxylate] | > 2000 nM |
| O=C(COc1ccc(F)c(Cl)c1)NC12CCC(NC(=O)COc3ccc(Cl)c(Cl)c3)(CC1)[C@@H](O)C2 [Compound 544, 2-(3-chloro-4-fluorophenoxy)-N-{(3S)-4-[2-(3,4-dichlorophenoxy)acetamido]-3-hydroxybicyclo[2.2.2]octan-1-yl}acetamide] | < 10 nM |
| O=C(COc1ccc2c(c1)OC(F)(F)O2)NC12CCC(NC(=O)COc3ccc(Cl)cc3)(CC1)[C@@H](O)C2 [Compound 799, 2-(4-chlorophenoxy)-N-[(2S)-4-{2-[(2,2-difluoro-2H-1,3-benzodioxol-5-yl)oxy]acetamido}-2-hydroxybicyclo[2.2.2]octan-1-yl]acetamide] | < 10 nM |
| O=C(COc1ccc(Cl)c(F)c1)NC12CCC(NC(=O)COc3ccc(C(F)(F)F)nc3)(CC1)[C@@H](O)C2 (single isomer, unassigned) [Compound 302] | < 10 nM |
| CN(C)c1cccc(CCOCC(=O)NC23CC(NC(=O)COc4ccc(Cl)c(F)c4)(C2)C3)c1 [Compound 145, 2-(4-chloro-3-fluorophenoxy)-N-[3-(2-{2-[3-(dimethylamino)phenyl]ethoxy}-acetamido)bicyclo[1.1.1]pentan-1-yl]acetamide] | > 2000 nM |
| O=C(COc1ccc(C(F)(F)F)nc1)NC12CCC(NC(=O)COc3ccc(Cl)c(Cl)c3)(CC1)[C@@H](O)C2 [Compound 583, 2-(3,4-dichlorophenoxy)-N-[(2S)-2-hydroxy-4-(2-{[6-(trifluoromethyl)pyridin-3-yl]oxy}acetamido)bicyclo[2.2.2]octan-1-yl]acetamide] | < 10 nM |
| Cc1ccc(OC(=O)NC23CC(NC(=O)COc4ccc(Cl)c(F)c4)(C2)C3)cc1 [Compound 435, 4-methylphenyl {3-[2-(4-chloro-3-fluorophenoxy)acetamido]bicyclo[1.1.1]pentan-1-yl}carbamate] | 250 to 500 nM |
| O=C(COc1ccc(Cl)c(F)c1)NC12CCC(NC(=O)COc3ccc(Cl)c(F)c3)(CC1)C2 [Compound 440, N,N′-(bicyclo[2.2.1]heptane-1,4-diyl)bis[2-(4-chloro-3-fluorophenoxy)acetamide]] | < 10 nM |
| O=C(COc1ccc(F)c(C(F)F)c1)NC12CCC(NC(=O)COc3ccc(Cl)c(F)c3)(CC1)[C@@H](O)C2 [Compound 790, 2-(4-chloro-3-fluorophenoxy)-N-[(2S)-4-{2-[3-(difluoromethyl)-4-fluorophenoxy]acetamido}-2-hydroxybicyclo[2.2.2]octan-1-yl]acetamide] | < 10 nM |
| O=C(COc1ccc(Cl)c(F)c1)NC12CCC(NC(=O)COc3ccc(F)cc3)(CC1)[C@@H](O)C2 (single isomer, unassigned) [Compound 354] | < 10 nM |
| O=C(COc1ccc(Cl)c(F)c1)NC12CCC(NC(=O)COc3ccc(Cl)c(F)c3)(CC1)C(NC1COC1)C2 (stereo not drawn) [Compound 722, N,N′-{2-[(oxetan-3-yl)amino]bicyclo[2.2.2]octane-1,4-diyl}bis[2-(4-chloro-3-fluorophenoxy)acetamide]] | < 10 nM |
| COCC(Oc1ccc(Cl)c(F)c1)C(=O)NC12CC(NC(=O)COc3ccc(Cl)c(F)c3)(C1)C2 (stereo not drawn) [Compound 421, 2-(4-chloro-3-fluorophenoxy)-N-{3-[2-(4-chloro-3-fluorophenoxy)acetamido]bicyclo[1.1.1]pentan-1-yl}-3-methoxypropanamide] | 50 to 250 nM |
| CN(CC(=O)NC12CCC(NC(=O)COc3ccc(Cl)c(F)c3)(CC1)C[C@@H]2O)c1ccc(Cl)cc1 [Compound 656, 2-(4-chloro-3-fluorophenoxy)-N-[(3S)-4-{2-[(4-chlorophenyl)(methyl)amino]acetamido}-3-hydroxybicyclo[2.2.2]octan-1-yl]acetamide] | 10 to 50 nM |
| CC1(O)CC2(NC(=O)COc3ccc(Cl)c(F)c3)CCC1(NC(=O)COc1ccc(C(F)(F)F)nc1)CC2 (stereo not drawn) [Compound 338, 2-(4-chloro-3-fluorophenoxy)-N-[3-hydroxy-3-methyl-4-(2-{[6-(trifluoromethyl)pyridin-3-yl]oxy}acetamido)bicyclo[2.2.2]octan-1-yl]acetamide] | 10 to 50 nM |
| CN(CC(=O)NC12CC(NC(=O)COc3ccc(Cl)c(F)c3)(C1)C2)C(=O)c1ccc(Cl)cc1 [Compound 204, 4-chloro-N-[2-({3-[2-(4-chloro-3-fluorophenoxy)acetamido]-bicyclo[1.1.1]pentan-1-yl}amino)-2-oxoethyl]-N-methylbenzamide] | 500 to 2000 nM |
| O=C(COc1ccc(F)c(C(F)(F)F)c1)NC12CCC(NC(=O)COc3ccc(F)c(C(F)(F)F)c3)(CC1)[C@@H](O)C2 [Compound 823, N,N′-[(2S)-2-hydroxybicyclo[2.2.2]octane-1,4-diyl]bis{2-[4-fluoro-3-(trifluoromethyl)phenoxy]acetamide}] | < 10 nM |
| O=C(COc1ccc2c(c1)OC(F)(F)O2)NC12CCC(NC(=O)COc3ccc(F)cc3)(CC1)[C@@H](O)C2 [Compound 798, 2-[(2,2-difluoro-2H-1,3-benzodioxol-5-yl)oxy]-N-{(3S)-4-[2-(4-fluorophenoxy)acetamido]-3-hydroxybicyclo[2.2.2]octan-1-yl}acetamide] | < 10 nM |

| Structure (SMILES) | EC50 |
| --- | --- |
| O=C(CCOc1cccc(Cl)c1)NC12CC(NC(=O)COc3ccc(Cl)c(F)c3)(C1)C2 [Compound 147, N-{3-[2-(4-chloro-3-fluorophenoxy)acetamido]bicyclo[1.1.1]pentan-1-yl}-3-(3-chlorophenoxy)propanamide] | 50 to 250 nM |
| CO[C@H]1C[C@]2(NC(=O)COc3ccc(Cl)c(F)c3)CC[C@@]1(NC(=O)COc1ccc(Cl)c(F)c1)CC2=O (racemic) [Compound 555, rac-N,N′-[(1R,2S,4R)-2-methoxy-5-oxobicyclo[2.2.2]octane-1,4-diyl]bis[2-(4-chloro-3-fluorophenoxy)acetamide]] | 10 to 50 nM |
| O=C(COc1ccc(F)c(Cl)c1)NC12CCC(NC(=O)COc3ccc(F)c(Cl)c3)(CC1)[C@@H](O)C2 [Compound 588, N,N′-[(2S)-2-hydroxybicyclo[2.2.2]octane-1,4-diyl]bis[2-(3-chloro-4-fluorophenoxy)acetamide]] | < 10 nM |
| Cc1cc(OCC(=O)NC23CCC(NC(=O)COc4ccc(Cl)c(F)c4)(CC2)C[C@@H]3O)cnc1C [Compound 394, 2-(4-chloro-3-fluorophenoxy)-N-[(3S)-4-{2-[(5,6-dimethylpyridin-3-yl)oxy]acetamido}-3-hydroxybicyclo[2.2.2]octan-1-yl]acetamide] | < 10 nM |
| O=C(CCOc1ccc(Cl)c(F)c1)NC12CCC(NC(=O)COc3ccc(Cl)cc3)(CC1)CC2 [Compound 729, 3-(4-chloro-3-fluorophenoxy)-N-{4-[2-(4-chlorophenoxy)acetamido]bicyclo[2.2.2]octan-1-yl}propanamide] | 50 to 250 nM |
| O=C(COc1cccc(F)c1)NC12CCC(NC(=O)COc3cccc(F)c3)(CC1)[C@@H](O)C2 [Compound 549, N,N′-[(2S)-2-hydroxybicyclo[2.2.2]octane-1,4-diyl]bis[2-(3-fluorophenoxy)acetamide]] | 50 to 250 nM |
| CS(=O)(=O)c1ccc(OCC(=O)NC23CCC(NC(=O)COc4ccc(OC(F)(F)F)cc4)(CC2)[C@@H](O)C3)cc1F [Compound 765, 2-[3-fluoro-4-(methanesulfonyl)phenoxy]-N-[(3S)-3-hydroxy-4-{2-[4-(trifluoromethoxy)phenoxy]acetamido}bicyclo[2.2.2]octan-1-yl]acetamide] | 250 to 500 nM |
| O=C(COc1ccc(Cl)c(F)c1)NC12CC(NC(=O)C(=O)Cc3ccc(Cl)cc3)(C1)C2 [Compound 312, N-{3-[2-(4-chloro-3-fluorophenoxy)acetamido]bicyclo[1.1.1]pentan-1-yl}-3-(4-chlorophenyl)-2-oxopropanamide] | 50 to 250 nM |
| O=C(COc1ccc(Cl)cc1)NC12CC(NC(=O)COc3ccc(Cl)c(Cl)c3)(C1)C2 [Compound 117, 2-(4-chlorophenoxy)-N-{3-[2-(3,4-dichlorophenoxy)acetamido]bicyclo-[1.1.1]pentan-1-yl}acetamide] | < 10 nM |
| COc1ccc(OCC(=O)NC23CCC(NC(=O)COc4ccc(Cl)c(F)c4)(CC2)[C@@H](O)C3)cn1 [Compound 651, 2-(4-chloro-3-fluorophenoxy)-N-[(2S)-2-hydroxy-4-{2-[(6-methoxypyridin-3-yl)oxy]acetamido}bicyclo[2.2.2]octan-1-yl]acetamide] | < 10 nM |
| O=C(COc1ccc(Cl)c(Cl)c1)NC12CC(NCCOc3ccc(Cl)c(Cl)c3)(C1)C2 [Compound 125, 2-(3,4-dichlorophenoxy)-N-(3-{[2-(3,4-dichlorophenoxy)ethyl]amino}-bicyclo[1.1.1]pentan-1-yl)acetamide] | < 10 nM |
| O=C(COCc1cccc(Cl)c1)NC12CC(NC(=O)COc3ccc(Cl)c(F)c3)(C1)C2 [Compound 131, 2-(4-chloro-3-fluorophenoxy)-N-(3-{2-[(3-chlorophenyl)methoxy]acetamido}-bicyclo[1.1.1]pentan-1-yl)acetamide] | 10 to 50 nM |
| CN(C)c1ccc(CC(=O)NC23CCC(NC(=O)COc4ccc(Cl)c(F)c4)(CC2)CC3O)cc1 (stereo not drawn) [Compound 320, 2-(4-chloro-3-fluorophenoxy)-N-(4-{2-[4-(dimethylamino)phenyl]acetamido}-3-hydroxybicyclo[2.2.2]octan-1-yl)acetamide] | 500 to 2000 nM |
| O=C(COCc1ccc(C(=O)O)cc1)NC12CC(NC(=O)COc3ccc(Cl)c(F)c3)(C1)C2 [Compound 211] | > 2000 nM |
| CN(CC(=O)NC12CCC(NC(=O)COc3ccc(Cl)c(Cl)c3)(C1)C2)c1ccc(Cl)cc1 [Compound 202, N^2-(4-chlorophenyl)-N-{4-[2-(3,4-dichlorophenoxy)acetamido]-bicyclo[2.1.1]hexan-1-yl}-N^2-methylglycinamide] | > 2000 nM |
| CCCS(=O)(=O)c1ccc(OCC(=O)NC23CCC(NC(=O)COc4ccc(Cl)c(F)c4)(CC2)C[C@@H]3O)cc1 [Compound 522, 2-(4-chloro-3-fluorophenoxy)-N-[(3S)-3-hydroxy-4-{2-[4-(propane-1-sulfonyl)phenoxy]acetamido}bicyclo[2.2.2]octan-1-yl]acetamide] | > 2000 nM |
